Laboratory results from patent publication US9000162B2, “5,8-difluoro-4-(2-(4-(heteroaryloxy)-phenyl)ethylamino)quinazolines and their use as agrochemicals” (Dow AgroSciences LLC, priority 2008, dated 2015).

How the values were obtained:
Type in all cases: in vivo
[1] = system: Septoria tritici (SEPTTR); experiment: Septoria blotch of wheat foliar protectant test; settings: Zymoseptoria tritici, read-out: Activity against fungal diseases SEPTTR; for pest or weed control at 200 ppm: 200 ppm foliar, inoculated one day after treatment; for pest or weed control at 25 ppm: foliar, Tested at 25 ppm (footnote b)
Experimental: (§1) The plants were inoculated with the fungus one day after treatment. ***=80-100% control; **=50-79% control; *=0-49% control. It will be understood by those in the art that the efficacy of the compounds against the foregoing fungi establishes the general utility of the compounds as fungicides. The activity of the compounds as effective fungicides was determined by applying the compounds to plants and observing control of fungal disease. […] All plants were inoculated with spores of the fungus the day after treatment, then incubated in an environment conducive to disease development. Disease severity was evaluated 4 to 25 days later, depending on the speed of disease development. The following experiments were performed in the laboratory to determine the fungicidal efficacy of the compounds of the invention. […] Each pot contained 3-10 seedlings. These plants were sprayed until wet with the formulated test compound. On the following day, the leaves were inoculated with an aqueous spore suspension of Septoria tritici and the plants were kept in high humidity (one day in a dark dew chamber followed by three days in a lighted dew chamber) to permit spores to germinate and infect the leaf. The plants were then transferred to a greenhouse until disease developed on untreated control plants. Table 1 presents the activity of typical compounds of the present invention when evaluated in these experiments. The effectiveness of the test compounds at controlling disease when sprayed on leaves was determined by assessing the severity of disease on treated plants, then converting the severity to percent control based on the level of disease on untreated, inoculated plants.

[2] = system: Magnaporthe grisea = Pyricularia oryzae (PYRIOR); experiment: whole plant or invertebrate; settings: foliar, read-out: Activity against fungal diseases PYRIOR
[3] = system: Puccinia recondita tritici (PUCCRT); experiment: Leaf rust of wheat foliar protectant test; settings: 200 ppm foliar, inoculated one day after treatment, read-out: Activity against fungal diseases PUCCRT
Experimental: as §1, with “3-8” for “3-10”, “compounds.” for “compound.”, “Puccinia recondita” for “Septoria”, “overnight” for “(one day in a dark dew chamber followed by three days in a lighted dew chamber)”

[4] = system: Pseudoperonospora cubensis (PSPECU); experiment: Cucumber downy mildew foliar protectant test; settings: 200 ppm foliar, inoculated one day after treatment, read-out: Activity against fungal diseases PSPECU
Experimental: The plants were inoculated with the fungus one day after treatment. ***=80-100% control; **=50-79% control; *=0-49% control. It will be understood by those in the art that the efficacy of the compounds against the foregoing fungi establishes the general utility of the compounds as fungicides. The activity of the compounds as effective fungicides was determined by applying the compounds to plants and observing control of fungal disease. […] All plants were inoculated with spores of the fungus the day after treatment, then incubated in an environment conducive to disease development. Disease severity was evaluated 4 to 25 days later, depending on the speed of disease development. The following experiments were performed in the laboratory to determine the fungicidal efficacy of the compounds of the invention. Cucumber Downy Mildew (Causal Agent Pseudoperonospora cubensis; Bayer Code […]): Cucumber plants (variety “Bush Champion' or 'Bush Pickle Hybrid') were grown from seed in a soil-less peat-based potting mixture (Metromix) until the first true leaf was 20-80% expanded. Each pot contained 1 seedling. These plants were sprayed until wet with the formulated test compound. On the following day, the leaves were inoculated with an aqueous suspension of downy mildew sporangia and the plants were kept in high humidity for one day to permit sporangia to germinate and infect the leaf. The plants were then incubated in a growth chamber until disease developed on untreated control plants. Table 1 presents the activity of typical compounds of the present invention when evaluated in these experiments. The effectiveness of the test compounds at controlling disease when sprayed on leaves was determined by assessing the severity of disease on treated plants, then converting the severity to percent control based on the level of disease on untreated, inoculated plants.

| SMILES | pest or weed control at 200 ppm [1] | pest or weed control at 200 ppm [2] | pest or weed control at 200 ppm [3] | pest or weed control at 200 ppm [4] | pest or weed control at 25 ppm [1] |
| --- | --- | --- | --- | --- | --- |
| N#Cc1ccnc(Oc2ccc(CCNc3ncnc4c(F)ccc(F)c34)cc2)c1 [Compound 2] | 0 to 49% | 80 to 100% | 80 to 100% | 80 to 100% | – |
| Fc1cc(CCNc2ncnc3c(F)ccc(F)c23)ccc1Oc1ncc(C(F)(F)F)cc1F [Compound 131] | 80 to 100% | 80 to 100% | 80 to 100% | 80 to 100% | – |
| Fc1ccc(F)c2c(NC3Cc4ccc(Oc5ccc(C(F)(F)F)cn5)cc4C3)ncnc12 (centres unmarked) [Compound 111] | 80 to 100% | 80 to 100% | 80 to 100% | 80 to 100% | – |
| Fc1ccc(F)c2c(NCCc3ccc(Oc4cc(Cl)ncn4)cc3)ncnc12 [Compound 127] | 0 to 49% | 80 to 100% | 80 to 100% | 80 to 100% | – |
| Fc1cc(Oc2cc(C(F)(F)F)ncn2)ccc1CCNc1ncnc2c(F)ccc(F)c12 [Compound 116] | – | 80 to 100% | 80 to 100% | 80 to 100% | 80 to 100% |
| Cc1cc(CCNc2ncnc3c(F)cc(F)c(F)c23)ccc1O [Compound 70] | 50 to 79% | 50 to 79% | 50 to 79% | 0 to 49% | – |
| COc1ccc(CCNc2ncnc3c(F)ccc(F)c23)cc1Cl [Compound 85] | 0 to 49% | 50 to 79% | 0 to 49% | 80 to 100% | – |
| COc1cc(CCNc2ncnc3c(F)ccc(F)c23)ccc1Oc1cc(C(F)(F)F)ncn1 [Compound 112] | – | 80 to 100% | 80 to 100% | 80 to 100% | 80 to 100% |
| COc1ccc(CCNc2ncnc3c(F)ccc(F)c23)c(C)c1C [Compound 20] | 50 to 79% | 50 to 79% | 80 to 100% | 80 to 100% | – |
| Cc1c(O)ccc(CCNc2ncnc3c(F)ccc(F)c23)c1C [Compound 23] | 0 to 49% | 50 to 79% | 50 to 79% | 80 to 100% | – |
| Oc1ccc(CCNc2ncnc3c(F)cc(F)c(F)c23)cc1 [Compound 27] | 0 to 49% | 0 to 49% | 0 to 49% | 0 to 49% | – |
| COc1cc(C(C)(F)F)cc(Oc2ccc(CCNc3ncnc4c(F)ccc(F)c34)cc2)n1 [Compound 11] | 80 to 100% | 50 to 79% | 80 to 100% | 80 to 100% | – |
| Cc1cc(Oc2cc(C(F)(F)F)ccn2)ccc1CCNc1ncnc2c(F)ccc(F)c12 [Compound 55] | 80 to 100% | 80 to 100% | 80 to 100% | 80 to 100% | – |
| COc1cc(CCNc2ncnc3c(F)ccc(F)c23)ccc1Oc1nc(F)c(F)c(N)c1F [Compound 98] | 0 to 49% | 80 to 100% | 80 to 100% | 80 to 100% | – |
| Cc1cc(CCNc2ncnc3c(F)cc(F)c(F)c23)ccc1Oc1cc(C(F)(F)F)ccn1 [Compound 80] | 80 to 100% | 80 to 100% | 80 to 100% | 80 to 100% | – |
| COc1ccc(CCNc2ncnc3c(F)ccc(F)c23)cc1F [Compound 46] | 0 to 49% | 0 to 49% | 80 to 100% | 80 to 100% | – |
| COc1ccc(CCNc2ncnc3c(F)ccc(F)c23)c(F)c1 [Compound 72] | – | 80 to 100% | 80 to 100% | 80 to 100% | 0 to 49% |
| Cc1cc(CCNc2ncnc3c(F)ccc(F)c23)c(C)cc1O [Compound 18] | 0 to 49% | 0 to 49% | 50 to 79% | 0 to 49% | – |
| Fc1cc(CCNc2ncnc3c(F)cc(F)c(F)c23)ccc1Oc1cc(C(F)(F)F)ccn1 [Compound 67] | 80 to 100% | 80 to 100% | 80 to 100% | 80 to 100% | – |
| Fc1cnc(C(F)(F)F)c(F)c1Oc1ccc(CCNc2ncnc3c(F)ccc(F)c23)cc1 [Compound 48] | 80 to 100% | 80 to 100% | 80 to 100% | 80 to 100% | – |
| Cc1cc(CCNc2ncnc3c(F)ccc(F)c23)ccc1Oc1cc(C(F)(F)F)cc[n+]1[O-] [Compound 61] | 80 to 100% | 50 to 79% | 80 to 100% | 80 to 100% | – |
| Fc1ccc(F)c2c(NCCc3cccc(Oc4cc(C(F)(F)F)ccn4)c3)ncnc12 [Compound 40] | – | 80 to 100% | 80 to 100% | 80 to 100% | 50 to 79% |
| Cc1cc(Oc2cc(C(F)(F)F)ccn2)c(C)cc1CCNc1ncnc2c(F)ccc(F)c12 [Compound 19] | 80 to 100% | 80 to 100% | 80 to 100% | 80 to 100% | – |
| COc1ccc(CCNc2ncnc3c(F)ccc(F)c23)cc1C [Compound 21] | – | 50 to 79% | 50 to 79% | 80 to 100% | 0 to 49% |
| Cc1c(CCNc2ncnc3c(F)ccc(F)c23)ccc(Oc2cc(C(F)(F)F)ccn2)c1C [Compound 26] | 80 to 100% | 50 to 79% | 80 to 100% | 80 to 100% | – |
| COc1cc(CCNc2ncnc3c(F)ccc(F)c23)ccc1Oc1cc(C(C)(F)F)ccn1 [Compound 16] | 80 to 100% | 80 to 100% | 80 to 100% | 80 to 100% | – |
| Fc1ccc(F)c2c(NCCc3ccccc3)ncnc12 [Compound 94] | 50 to 79% | 0 to 49% | 80 to 100% | 80 to 100% | – |
| COc1cc(C(F)(F)F)cc(Oc2ccc(CCNc3ncnc4c(F)ccc(F)c34)c(C)c2C)n1 [Compound 30] | 0 to 49% | 50 to 79% | 80 to 100% | 50 to 79% | – |
| Fc1ccc(F)c2c(NCCOc3ccc(Oc4cc(C(F)(F)F)ccn4)cc3)ncnc12 [Compound 8] | 50 to 79% | 80 to 100% | 80 to 100% | 80 to 100% | – |
